Experimental data reported in paper PMC11340245, “Studies of Protein Binding to Biomimetic Membranes Using a Group of Uniform Materials Based on Organic Salts Derived From 8-Anilino-1-naphthalenesulfonic Acid” (Applied Spectroscopy, 2024).

Assay: Thermal stability by thermogravimetric analysis (TGA)
Assay type: physicochemical
Conditions: heated from 25 to 595 °C, ramp rate 10 °C min^–1
Procedure: The thermal stability of [N4444][ANS] and [P4444][ANS] was investigated using a TA Discovery TGA 550 instrument. GUMBOS were heated from 25 to 595 °C using a ramp rate of 10 °C min^–1. The melting points of these compounds were also determined using a MEL-TEMP apparatus. Membrane partition and competitive binding assays were performed on a BioTek Cytation 3 imaging reader.
Thermal behaviors of [N4444][ANS] and [P4444][ANS] GUMBOS were further investigated using TGA. Figure S14 and Table S2 (Supplemental Material) present the weight loss curves and temperatures at which GUMBOS weight was reduced by 50% (T50%), respectively.

Structure (SMILES)	T50% (half weight loss temperature)
CCCC[N+](CCCC)(CCCC)CCCC.O=S(=O)([O-])c1cccc2cccc(Nc3ccccc3)c12 [[N4444][ANS]]	308 ºC
CCCC[P+](CCCC)(CCCC)CCCC.O=S(=O)([O-])c1cccc2cccc(Nc3ccccc3)c12 [[P4444][ANS]]	422 ºC
